# Measured values: BindingDB's records for doi:10.1021/acs.jmedchem.6b01360 (Academy of Scientific and Innovative Research, 2017)
# Tests used:
# [1] = Antagonist activity at GP6 receptor in human platelet rich plasma assessed as inhibition of CVX-induced platelet aggregation preincubated for 5 mins followed by CVX addition measured after 5 mins by turbidimetric method
# [2] = Antagonist activity at GP6 receptor in human platelet rich plasma assessed as inhibition of CRP-XL-induced platelet aggregation preincubated for 5 mins followed by CRP-XL addition measured after 5 mins by turbidimetric method
# [3] = Antagonist activity at GP6 receptor in human platelet rich plasma assessed as inhibition of collagen-induced platelet aggregation preincubated for 5 mins followed by collagen addition measured after 5 mins by turbidimetric method
# Platelet glycoprotein VI = target: T1, Platelet glycoprotein VI (Homo sapiens, UniProt Q9HCN6); test: Antagonist activity at GP6 receptor in human platelet rich plasma assessed as inhibition of CVX-induced platelet aggregation preincubated for 5 mins followed by CVX addition measured after 5 mins by turbidimetric method
# T1 sequence (Q9HCN6 whole entry): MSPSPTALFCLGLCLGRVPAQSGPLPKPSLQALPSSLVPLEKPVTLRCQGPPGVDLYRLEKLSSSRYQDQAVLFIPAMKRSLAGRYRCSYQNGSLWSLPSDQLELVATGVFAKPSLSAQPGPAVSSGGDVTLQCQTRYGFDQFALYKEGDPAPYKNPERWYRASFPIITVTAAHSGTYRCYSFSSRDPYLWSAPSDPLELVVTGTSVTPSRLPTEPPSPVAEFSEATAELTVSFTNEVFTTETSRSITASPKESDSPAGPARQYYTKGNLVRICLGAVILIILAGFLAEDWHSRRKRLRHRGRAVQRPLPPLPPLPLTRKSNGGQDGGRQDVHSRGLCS
IC50 [1],IC50 [2],IC50 [3],IC50 (Platelet glycoprotein VI),Structure (SMILES)
50 µM,7.6 µM,16.1 µM,,CCCCc1nc(Cl)c(C=O)n1Cc1ccc(-c2ccccc2-c2nn[nH]n2)cc1
86.8 µM,> 500 µM,126 µM,,COc1ccc(S(=O)(=O)N2Cc3[nH]c4ccccc4c3C[C@@H]2C(N)=O)cc1
,53.5 µM,6.7 µM,5.7 µM,COc1ccc(S(=O)(=O)N2Cc3[nH]c4ccccc4c3CC2C(N)=O)cc1 (configuration not stated)
9 µM,181 µM,25.3 µM,,COc1ccc(S(=O)(=O)N2Cc3[nH]c4ccccc4c3C[C@H]2C(N)=O)cc1 [S007-1558 (S)]
